# Results: US11691972B2, “Compounds for targeted degradation of BRD9” (C4 Therapeutics, Inc., priority 2020, dated 2023)
# Molecular target: T1, BRD9 (Homo sapiens, UniProt Q9H8M2)
# T1 sequence (Q9H8M2 1-597): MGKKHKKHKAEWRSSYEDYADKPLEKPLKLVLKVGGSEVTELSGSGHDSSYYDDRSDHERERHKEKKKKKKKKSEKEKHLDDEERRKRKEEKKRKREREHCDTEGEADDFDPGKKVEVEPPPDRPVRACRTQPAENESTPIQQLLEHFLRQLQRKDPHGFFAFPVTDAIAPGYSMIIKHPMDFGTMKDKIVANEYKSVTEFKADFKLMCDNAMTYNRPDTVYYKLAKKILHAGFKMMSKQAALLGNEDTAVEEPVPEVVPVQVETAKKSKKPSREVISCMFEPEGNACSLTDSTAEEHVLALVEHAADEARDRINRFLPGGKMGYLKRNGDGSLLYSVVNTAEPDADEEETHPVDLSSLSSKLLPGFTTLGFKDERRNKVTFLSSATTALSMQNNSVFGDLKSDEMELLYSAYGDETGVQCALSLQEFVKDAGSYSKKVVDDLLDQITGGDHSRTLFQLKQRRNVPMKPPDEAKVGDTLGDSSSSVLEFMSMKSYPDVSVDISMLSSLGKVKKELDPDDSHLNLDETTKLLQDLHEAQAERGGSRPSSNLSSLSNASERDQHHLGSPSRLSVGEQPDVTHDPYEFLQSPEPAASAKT
# Experiment: HiBiT BRD9 degradation assay in 293T.166 (BRD9-HiBiT) cells
# Format: cell-based
# Design: endogenously expressing BRD9 with HiBiT fusion tag via CRISPR; host or cells: 293T.166 (BRD9-HiBiT), also expressing LgBiT ectopically
# Conditions: Table 1; 293T.166 cells, 2.0 hours; class symbols; read-out: HiBiT-Degradation 293T.166 BRD9 2.0 hours (DC50)
# Method in brief: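 Luminescence from the Nano-Glo HiBiT lytic reagent quantified BRD9 loss after compounds (top 10 μM, half-log, 11 points, duplicates) were incubated 2 h at 37° C. with 10,000 293T.166 BRD9-HiBiT/LgBiT cells per well, with controls lacking compound or lacking reagent.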
row,Compound,DC50 [nM]
1,Cc1c(-c2ccc(C(=O)N3CCC(N(C)C(=O)N4CCC(c5ccc(NC6CCC(=O)NC6=O)cc5)CC4)CC34CC4)c(OC(F)(F)F)c2)cn(C)c(=O)c1C (centres unmarked) [Compound 137],< 100
2,CN(C(=O)N1CCC(c2ccc(NC3CCC(=O)NC3=O)cc2F)CC1)C1CCN(C(=O)c2ccc(-c3cn(C)c(=O)c4cnccc34)cc2OC(F)(F)F)CC1 (centres unmarked) [Compound 138],< 100
3,CN(C(=O)N1CCC(c2ccc(NC3CCC(=O)NC3=O)cc2F)CC1)C1CCN(C(=O)c2ccc(-c3cn(C)c(=O)c4ccccc34)cc2OC(F)(F)F)CC1 (centres unmarked) [Compound 139],< 100
4,COc1cc(-c2cn(C)c(=O)c(C)c2C)cc(Cl)c1C(=O)N1CCC(N(C)C(=O)N2CCC(c3ccc(NC4CCC(=O)NC4=O)cc3F)CC2)CC1 (centres unmarked) [Compound 140],< 100
5,CN(C(=O)N1CCC(c2ccc(NC3CCC(=O)NC3=O)cc2F)CC1)C1CCN(C(=O)c2ccc(-c3cn(C)c(=O)c4cc(F)ccc34)cc2OC(F)(F)F)CC1 (centres unmarked) [Compound 141],< 100
6,COc1cc(-c2cn(C)c(=O)c3cnccc23)cc(Cl)c1C(=O)N1CCC(N(C)C(=O)N2CCC(c3ccc(NC4CCC(=O)NC4=O)cc3F)CC2)CC1 (centres unmarked) [Compound 142],< 100
7,Cc1c(-c2ccc(C(=O)N3CCC(N(C)C(=O)N4CCC(c5ccc(NC6CCC(=O)NC6=O)cc5F)CC4)CC3)c(OC(F)(F)F)c2)cn(C)c(=O)c1C (centres unmarked) [Compound 143],< 100
8,"COc1cc(-c2cn(C)c(=O)c3[nH]ncc23)cc(F)c1CN1CCN(C(=O)NC2CCN(c3ccc(NC4CCC(=O)NC4=O)cc3)CC2)CC1 (centres unmarked) [Compound 145, N-[1-[4-[(2,6-dioxo-3-piperidyl)amino]phenyl]-4-piperidyl]-4-[[2-fluoro-6-methoxy-4-(6-methyl-7-oxo-1H-pyrazolo[3,4-c]pyridin-4-yl)phenyl]methyl]piperazine-1-carboxamide]",< 100
9,"COc1cc(-c2cn(C)c(=O)c3[nH]ncc23)cc(F)c1CN1CCN(C(=O)OC2CCN(c3ccc(NC4CCC(=O)NC4=O)cc3)CC2)CC1 (centres unmarked) [Compound 146, [1-[4-[(2,6-dioxo-3-piperidyl)amino]phenyl]-4-piperidyl] 4-[[2-fluoro-6-methoxy-4-(6-methyl-7-oxo-1H-pyrazolo[3,4-c]pyridin-4-yl)phenyl]methyl]piperazine-1-carboxylate]",< 100
10,"COc1cc(-c2cn(C)c(=O)c3[nH]ncc23)cc(F)c1CN1CCC(CCC2CCN(c3ccc(NC4CCC(=O)NC4=O)cc3)CC2)CC1 (centres unmarked) [Compound 147, 3-[4-[4-[2-[1-[[2-fluoro-6-methoxy-4-(6-methyl-7-oxo-1H-pyrazolo[3,4-c]pyridin-4-yl)phenyl]methyl]-4-piperidyl]ethyl]-1-piperidyl]anilino]piperidine-2,6-dione]",< 100
11,COc1cc(-c2cn(C)c(=O)c3[nH]ncc23)cc(Cl)c1CN1CCC(CCC2CCN(c3ccc(NC4CCC(=O)NC4=O)cc3F)CC2)CC1 (centres unmarked) [Compound 148],< 100
12,COc1cc(-c2cn(C)c(=O)c3cnccc23)cc(Cl)c1CN1CCC(CCC2CCN(c3ccc(NC4CCC(=O)NC4=O)cc3C(F)(F)F)CC2)CC1 (centres unmarked) [Compound 149],< 100
13,COc1cc(-c2cn(C)c(=O)c3cnccc23)cc(Cl)c1CN1CCC(CCC2CCN(c3ccc(NC4CCC(=O)NC4=O)cc3F)CC2)CC1 (centres unmarked) [Compound 150],< 100
14,"COc1cc(-c2cn(C)c(=O)c3[nH]ncc23)cc(Cl)c1CN1CCC(F)(CCC2CCN(c3ccc(NC4CCC(=O)NC4=O)cc3F)CC2)CC1 (centres unmarked) [Compound 151, 3-[4-[4-[2-[1-[[2-chloro-6-methoxy-4-(6-methyl-7-oxo-1H-pyrazolo[3,4-c]pyridin-4-yl)phenyl]methyl]-4-fluoro-4-piperidyl]ethyl]-1-piperidyl]-3-fluoro-anilino]piperidine-2,6-dione]",< 100
15,COc1cc(-c2cn(C)c(=O)c3cnccc23)cc(Cl)c1CN1CCC(F)(CCC2CCN(c3ccc(NC4CCC(=O)NC4=O)cc3F)CC2)CC1 (centres unmarked) [Compound 152],< 100
16,COc1cc(-c2cn(C)c(=O)c(C)c2C)cc(Cl)c1CN1CCC(F)(CCC2CCN(c3ccc(NC4CCC(=O)NC4=O)cc3F)CC2)CC1 (centres unmarked) [Compound 153],< 100
17,COc1cc(-c2cn(C)c(=O)c3[nH]ncc23)cc(F)c1CN1CCC(O)(CC(=O)N2CCC(c3ccc(NC4CCC(=O)NC4=O)cc3F)CC2)CC1 (centres unmarked) [Compound 154],< 100
18,"COc1cc(-c2cn(C)c(=O)c3[nH]ncc23)cc(OC)c1CC1CCN(C(=O)CN2CCC(c3ccc(NC4CCC(=O)NC4=O)cc3)CC2)CC1 (centres unmarked) [Compound 155, 3-[4-[1-[2-[4-[[2,6-dimethoxy-4-(6-methyl-7-oxo-1H-pyrazolo[3,4-c]pyridin-4-yl)phenyl]methyl]-1-piperidyl]-2-oxo-ethyl]-4-piperidyl]anilino]piperidine-2,6-dione]",< 100
19,"COc1cc(-c2cn(C)c(=O)c3[nH]ncc23)cc(F)c1CC1CCN(CC(=O)N2CCC(c3ccc(NC4CCC(=O)NC4=O)cc3)CC2)CC1 (centres unmarked) [Compound 156, 3-[4-[1-[2-[4-[[2-fluoro-6-methoxy-4-(6-methyl-7-oxo-1H-pyrazolo[3,4-c]pyridin-4-yl)phenyl]methyl]-1-piperidyl]acetyl]-4-piperidyl]anilino]piperidine-2,6-dione]",< 100
20,"COc1cc(-c2cn(C)c(=O)c3[nH]ncc23)cc(F)c1C=C1CCN(CC(=O)N2CCC(c3ccc(NC4CCC(=O)NC4=O)cc3)CC2)CC1 (centres unmarked) [Compound 157, 3-[4-[1-[2-[4-[[2-fluoro-6-methoxy-4-(6-methyl-7-oxo-1H-pyrazolo[3,4-c]pyridin-4-yl)phenyl]methylene]-1-piperidyl]acetyl]-4-piperidyl]anilino]piperidine-2,6-dione]",< 100
21,"COc1cc(-c2cn(C)c(=O)c3cnccc23)cc(F)c1CC1CCN(C(=O)CC2CCN(c3ccc(NC4CCC(=O)NC4=O)cc3F)CC2)CC1 (centres unmarked) [Compound 158, 3-[3-fluoro-4-[4-[2-[4-[[2-fluoro-6-methoxy-4-(2-methyl-1-oxo-2,7-naphthyridin-4-yl)phenyl]methyl]-1-piperidyl]-2-oxo-ethyl]-1-piperidyl]anilino]piperidine-2,6-dione]",< 100
22,COc1cc(-c2cn(C)c(=O)c3[nH]ncc23)cc(OC)c1CC1CCN(C(=O)CC2CCN(c3ccc(NC4CCC(=O)NC4=O)cc3)CC2)CC1 (centres unmarked) [Compound 159],< 100
23,COc1cc(-c2cn(C)c(=O)c3[nH]ncc23)cc(OC)c1CC1CCN(C(=O)CC2CCN(c3ccc(NC4CCC(=O)NC4=O)cc3C(F)(F)F)CC2)CC1 (centres unmarked) [Compound 160],< 100
24,"COc1cc(-c2cn(C)c(=O)c3cnccc23)cc(Cl)c1C=C1CCN(C(=O)CC2CCN(c3ccc(NC4CCC(=O)NC4=O)cc3F)CC2)CC1 (centres unmarked) [Compound 161, 3-[4-[4-[2-[4-[[2-chloro-6-methoxy-4-(2-methyl-1-oxo-2,7-naphthyridin-4-yl)phenyl]methylene]-1-piperidyl]-2-oxo-ethyl]-1-piperidyl]-3-fluoro-anilino]piperidine-2,6-dione]",< 100
25,COc1cc(-c2cn(C)c(=O)c(C)c2C)cc(OC)c1C=C1CCN(C(=O)CC2CCN(c3ccc(NC4CCC(=O)NC4=O)cc3F)CC2)CC1 (centres unmarked) [Compound 162],< 100
26,COc1cc(-c2cn(C)c(=O)c(C)c2C)cc(Cl)c1C=C1CCN(C(=O)CC2CCN(c3ccc(NC4CCC(=O)NC4=O)cc3F)CC2)CC1 (centres unmarked) [Compound 163],< 100
